Laboratory results taken from patent US6767569B1, “Surface decontamination of cooked sausage and processed meat and poultry products” (priority 1999, dated 2004).

Assays:
Type in all cases: cell-based
[1] = test system: E. coli
Experimental: (§1) Each strain was subcultured on tryptic soy agar (TSA, DIFCO, Detroit, Mich.) slants and stored at 4° C. Strains were individually transferred into 100 mL of sterile 2× BHI (DIFCO, Detroit, Mich.) and incubated at 35° C. for 24 hr. to reach ca. 10^9 colony forming units/mL (CFU/mL). Then, 25 mL of each strain of E. coli was transferred into a sterile bottle (mixture X), and 25 mL of each strain of each strain of Salmonella spp. was transferred into a sterile bottle (mixture Y). Mixtures X and Y were maintained separately throughout the test.
(§2) Serial dilutions were made using Butterfields' Phosphate Buffer (BPB, Sigma, St. Louis, Mo.) in 1 mL aliquots prior to inoculation. BPB was prepared as a stock solution by adding 34 g Of KH2PO4 to 500 mL of distilled water. The pH was adjusted to 7.2, and the solution was brought to a volume of 1 L. The BPB stock was autoclaved for 20 min. at 121° C. and 15 lbs. of pressure. […] For glacial acetic acid (U.S.P.-F.C.C., J. T. Baker, Phillipsburg, N.J.), starting concentrations and serial dilutions were 50%, 25%, 12.5%, 6.25%, 3.12%, 1.56%, 0.78%, 0.39%, and a control (no treatment, buffer and culture). […] For peracetic acid 35.0% (STERIS 20™, STERIS Corporation, Mentor, Ohio), starting concentrations and serial dilutions were 17.5%, 8.75%, 4.38%, 2.19%, 1.09%, 0.55%, 0.30%, 0.14%, 0.07%, 0.03%, and a control. For liquid smoke (Hickory Specialties, Brentwood, Tenn.) starting concentrations and serial dilutions were 50%, 25%, 12.5%, 6.25%, 3.12%, 1.56%, 0.78%, 0.39%, and a control. Dilutions were prepared with deionized water.
(§3) The test tubes were incubated at 35° C. for 24 hrs. and turbidity was evaluated using McFarland equivalence standards, to study the bacteriostatic properties of the diluted solutions. In addition, each dilution was plated to evaluate the bactericidal properties of, the diluted solutions. Using a 1 μL sterile loop, each concentration and control for either microorganism mixture was streaked on plate count agar (PCA, DIFCO, Detroit, Mich.). A selective agar was also used for each mixture, eosine methylene blue agar (EMB, DIFCO, Detroit, Mich.) for E. coli and xylose lysine decarboxylase agar (XLD, DIFCO, Detroit,Mich.) for Salmonella spp. All plates were incubated for 24 hrs. at 35° C. and were inspected for growth or no growth.

[2] = test system: Salmonella spp.; settings: 35 °C, 24 hrs
Experimental: as §1, §2, §3

[3] = test system: E. coli; settings: pork skin; 5 seconds spray; 2% lactic acid, 2% acetic acid, 0.1% peracetic acid; after 24 hours
Experimental: (§4) Samples of pork skin were inoculated separately with either 5 strains of E. coli or 5 strains of Salmonella spp. (mixtures X and Y, see Example 4). Five different treatments were evaluated for effectiveness in reducing bacteria on pork skin. […] EMB agar was used for E. coli and XLD for Salmonella, and a nutrient agar was also used for E. coli and Salmonella for total count.
(§5) The five strains of generic E. coli and five strains of Salmonella spp. were cultured and transferred individually into 100 mL of tryptic soy broth (TSB, DIFCO, Detroit, Mich.) with 1% dextrose (Sigma, St. Louis, Mo.) in duplicate. Dextrose was added to induce acid tolerance in the microbial cell. The cultures were incubated at 35° C. for 24 hrs. to obtain ca. 10^9 colony forming units (CFU)/mL. The cells were harvested by the centrifuging each culture at 10,000 Xg force for 10 min. at 4° C., (Beckman J2-HS centrifuge, Beckman Instruments, Inc., Palo Alto, Calif.). After centrifugation, the supernatant was poured off, and cells remained in pellet form. Each pellet was individually re-suspended with 50 mL of 0.1% peptonewater (DIFCO, Detroit, Mich.). All five strains of E. coli or Salmonella spp. inoculum were transferred to separate HDPE plastic spray bottles (Sprayco™, Detroit, Mich.) to be used in the mist inoculation of pork skin samples.
(§6) For E. coli, PCA and EMB media were used, and for Salmonella, PCA and XLD media were used. Bacto Plate Count Agar (PCA) was used in this study as a standard methods medium for the enumeration of bacteria before and after treatments. Spiral (sl), or spread (sd) plate technique were used for viable cell counts. Duplicate plates were performed for each treatment.
(§7) Fresh pork skins taken from the loin region were cut to rectangles of 19.35 cm^2. A hole was bored into the top of each sample so that each sample could be suspended from an individual hook in the spray cabinet. Samples were laid out onto trays wrapped in butcher paper. Each tray was individually spray inoculated with E. coli or Salmonella spp. in a Plexiglas spray chamber to ca. 8.4 mL of inoculum. After the inoculation, each tray was placed under a laminar flow hood for 1 hr. to allow the surface to dry and for the attachment of the bacteria to the pork skin.
(§8) The peracetic acid (PAA) used in this study was a 35.0% PAA buffered, liquid solution prepared from a STERIS 20™ two compartment cup (a dry powder containing anticorrosive additives, buffers, sequestrants, and surfactants). The peracetic acid determined before each use of the treatment using a calibration curve.
(§9) Five inoculated samples were individually placed on stainless steel hooks in. a spray cabinet at ambient temperature.
(§10) The samples were exposed to a continuous spray of the selected treatment for 5 seconds at a spray pressure of 16-18 psi.
(§11) The treated samples were placed into individual stomacher bags containing 30 mL of 0.1% peptone water (DIFCO, Detroit, Mich.) and stomached for 2 min. Serial dilutions of 0, 10^−2, and 10^−4 were spiral plated (WASP spiral plater, Bioscience International, Rockville, Md.) on PCA (DIFCO, Detroit, Mich.) and EMB (DIFCO, Detroit, Mich.) for E. coli and on plate count agar (PCA, DIFCO, Detroit, Mich.) and xylose lysine decarboxylase agar (XLD, DIFCO, Detroit, Mich.) for Salmonella spp. Samples were also spread plated on PCA and EMB agar for E. coli or PCA and XLD agar for Salmonella spp, using […] for a total of 1 mL on 4 plates. This was to ensure a countable plate. Plates were inverted and incubated at 35° C. for 24 hrs. (48 hrs. for Salmonella spp.).

[4] = test system: Salmonella spp.; settings: pork skin; 5 seconds spray; 2% lactic acid, 2% acetic acid, 0.1% peracetic acid; after 48 hours
Experimental: as §4, §5, §6, §7, §8, §9, §10, §11

## CC(=O)O [Acetic Acid, acetic acid, reference compound]
[1]
  MIC (%): 3.12%
[2]
  MIC (%): 0.78%
[3]
  Total Count (E. coli) on EMB: 4.55 Log CFU/cm^2
  Total Count (E. coli) on PCA: 4.68 Log CFU/cm^2
[4]
  Total Count (Salmonella) on PCA: 5.37 Log CFU/cm^2
  Total Count (Salmonella) on XLD: 4.27 Log CFU/cm^2
